Experimental data reported in ChEMBL document CHEMBL5137088 (J Med Chem, 2022).
pIC50: −log10 of the molar value.

What was measured:
in vitro [1] = conditions: chicken, chick embryo fibroblast cells
in vitro [2] = conditions: dog, MDCK cells
Cytochrome P450 2C9 = Cytochrome P450 2C9 (Homo sapiens, UniProt P11712); format: ADME, microsomes, Liver, Microsome
Cytochrome P450 2C19 = Cytochrome P450 2C19 (Homo sapiens, UniProt P33261); format: ADME, microsomes, Liver, Microsome
Cytochrome P450 3A4 = Cytochrome P450 3A4 (Homo sapiens, UniProt P08684); format: ADME, microsomes, Liver, Microsome
[3] = Half-life in Sprague-Dawley rat at 2 mg/kg, iv measured upto 12 hrs by LC-MS/MS analysis; format: ADME, organism-based; conditions: in vivo
[4] = Tmax in Sprague-Dawley rat at 2 mg/kg, iv measured upto 12 hrs by LC-MS/MS analysis; format: ADME, organism-based; conditions: in vivo
[5] = Cmax in Sprague-Dawley rat at 2 mg/kg, iv measured upto 12 hrs by LC-MS/MS analysis; format: ADME, organism-based; parameters: time < 12 hrs, dose 2 mg/kg, route iv; conditions: in vivo
[6] = Volume of distribution at steady state in Sprague-Dawley rat at 2 mg/kg, iv measured upto 12 hrs by LC-MS/MS analysis; format: ADME, organism-based; conditions: in vivo, read-out: Vdss
[7] = Clearance in Sprague-Dawley rat at 2 mg/kg, iv measured upto 12 hrs by LC-MS/MS analysis; format: ADME, organism-based; conditions: in vivo
[8] = Half-life in Sprague-Dawley rat at 20 mg/kg, po measured upto 12 hrs by LC-MS/MS analysis; format: ADME, organism-based; conditions: in vivo
[9] = Tmax in Sprague-Dawley rat at 20 mg/kg, po measured upto 12 hrs by LC-MS/MS analysis; format: ADME, organism-based; conditions: in vivo
[10] = Cmax in Sprague-Dawley rat at 20 mg/kg, po measured upto 12 hrs by LC-MS/MS analysis; format: ADME, organism-based; parameters: time < 12 hrs, dose 20 mg/kg, route po; conditions: in vivo
[11] = Oral bioavailability in Sprague-Dawley rat at 20 mg/kg measured upto 12 hrs by LC-MS/MS analysis; format: ADME, organism-based; conditions: in vivo
[12] = Acute toxicity in 12 hrs fasted Kunming mouse assessed as animal death at 1000 mg/kg, po measured for 1 week; format: organism-based; conditions: in vivo, 168 h, time 1 weeks
[13] = Acute toxicity in 12 hrs fasted Kunming mouse assessed as lethargy at 1000 mg/kg, po measured for 1 week; format: organism-based; conditions: in vivo, 168 h, time 1 weeks
[14] = Acute toxicity in 12 hrs fasted Kunming mouse assessed as clonic convulsion at 1000 mg/kg, po measured for 1 week; format: organism-based; conditions: in vivo, 168 h, time 1 weeks
[15] = Acute toxicity in 12 hrs fasted Kunming mouse assessed as ruffled fur at 1000 mg/kg, po measured for 1 week; format: organism-based; conditions: in vivo, 168 h, time 1 weeks
[16] = Subacute toxicity in 12 hrs fasted Kunming mouse assessed as animal death at 50 mg/kg, po administered once every two days for 2 weeks; format: organism-based; conditions: in vivo
[17] = Subacute toxicity in 12 hrs fasted Kunming mouse assessed as poisoning symptom at 50 mg/kg, po administered once every two days for 2 weeks; format: organism-based; conditions: in vivo
[18] = Subacute toxicity in 12 hrs fasted Kunming mouse assessed as increase in body weight at 50 mg/kg, po administered once every two days for 2 weeks relative to control; format: organism-based; conditions: in vivo
[19] = Subacute toxicity in 12 hrs fasted Kunming mouse assessed as animal death at 50 mg/kg, iv administered once every two days for 2 weeks; format: organism-based; conditions: in vivo
[20] = Subacute toxicity in 12 hrs fasted Kunming mouse assessed as side effect at 50 mg/kg, iv administered once every two days for 2 weeks; format: organism-based; conditions: in vivo
Cytochrome P450 1A2 = target: T1, Cytochrome P450 1A2 (Homo sapiens, UniProt P05177)
T1 sequence (P05177 whole entry): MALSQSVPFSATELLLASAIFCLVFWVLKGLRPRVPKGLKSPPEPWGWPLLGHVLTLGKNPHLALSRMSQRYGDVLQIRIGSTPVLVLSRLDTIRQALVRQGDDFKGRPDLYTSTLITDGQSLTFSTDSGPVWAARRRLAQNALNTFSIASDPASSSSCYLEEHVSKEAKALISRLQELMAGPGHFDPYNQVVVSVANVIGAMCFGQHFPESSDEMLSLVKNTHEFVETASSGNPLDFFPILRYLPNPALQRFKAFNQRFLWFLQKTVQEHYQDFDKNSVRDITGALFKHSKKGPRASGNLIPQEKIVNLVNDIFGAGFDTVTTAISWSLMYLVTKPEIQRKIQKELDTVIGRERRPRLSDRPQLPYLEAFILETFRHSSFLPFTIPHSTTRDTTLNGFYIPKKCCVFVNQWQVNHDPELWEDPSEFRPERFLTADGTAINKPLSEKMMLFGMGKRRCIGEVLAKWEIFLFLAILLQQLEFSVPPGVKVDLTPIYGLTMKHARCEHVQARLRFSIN

Cytochrome P450 2D6 = Cytochrome P450 2D6 (Homo sapiens, UniProt P10635)
in vitro [21] = conditions: human, liver microsomes
in vitro [22] = conditions: human, human liver (fraction not stated)
in vitro [23] = conditions: human, human liver (fraction not stated); remark: listed apart in the source
in vitro [24] = conditions: human, Caco-2

Chain of Cytochrome P450 2C19 (P33261 whole entry): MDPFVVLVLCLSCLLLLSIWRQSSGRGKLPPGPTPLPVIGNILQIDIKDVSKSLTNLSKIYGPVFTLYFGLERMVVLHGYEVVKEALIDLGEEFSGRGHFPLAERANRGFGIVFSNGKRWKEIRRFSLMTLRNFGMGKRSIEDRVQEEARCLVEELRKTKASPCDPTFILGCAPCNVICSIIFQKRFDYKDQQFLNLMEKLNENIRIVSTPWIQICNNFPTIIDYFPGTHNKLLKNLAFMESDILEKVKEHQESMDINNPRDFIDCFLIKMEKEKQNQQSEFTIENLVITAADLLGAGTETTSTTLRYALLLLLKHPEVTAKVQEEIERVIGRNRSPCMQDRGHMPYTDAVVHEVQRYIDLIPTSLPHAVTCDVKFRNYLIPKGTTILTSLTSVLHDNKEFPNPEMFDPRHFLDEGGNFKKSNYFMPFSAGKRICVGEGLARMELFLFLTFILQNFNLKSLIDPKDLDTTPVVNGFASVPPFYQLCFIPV
Chain of Cytochrome P450 2C9 (P11712 whole entry): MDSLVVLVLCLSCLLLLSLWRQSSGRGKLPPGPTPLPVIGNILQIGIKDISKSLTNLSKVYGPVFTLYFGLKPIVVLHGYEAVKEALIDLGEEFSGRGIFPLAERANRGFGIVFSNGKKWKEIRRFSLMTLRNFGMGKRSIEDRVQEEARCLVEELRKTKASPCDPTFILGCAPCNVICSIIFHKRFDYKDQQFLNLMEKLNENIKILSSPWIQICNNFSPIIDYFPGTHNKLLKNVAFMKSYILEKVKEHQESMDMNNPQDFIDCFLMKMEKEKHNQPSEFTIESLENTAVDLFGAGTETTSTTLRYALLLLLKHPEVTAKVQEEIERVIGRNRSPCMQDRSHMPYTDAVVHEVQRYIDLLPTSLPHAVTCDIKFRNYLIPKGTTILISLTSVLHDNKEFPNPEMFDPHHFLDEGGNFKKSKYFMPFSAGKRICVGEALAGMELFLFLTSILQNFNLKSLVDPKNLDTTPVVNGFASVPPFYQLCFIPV
Chain of Cytochrome P450 3A4 (P08684 whole entry): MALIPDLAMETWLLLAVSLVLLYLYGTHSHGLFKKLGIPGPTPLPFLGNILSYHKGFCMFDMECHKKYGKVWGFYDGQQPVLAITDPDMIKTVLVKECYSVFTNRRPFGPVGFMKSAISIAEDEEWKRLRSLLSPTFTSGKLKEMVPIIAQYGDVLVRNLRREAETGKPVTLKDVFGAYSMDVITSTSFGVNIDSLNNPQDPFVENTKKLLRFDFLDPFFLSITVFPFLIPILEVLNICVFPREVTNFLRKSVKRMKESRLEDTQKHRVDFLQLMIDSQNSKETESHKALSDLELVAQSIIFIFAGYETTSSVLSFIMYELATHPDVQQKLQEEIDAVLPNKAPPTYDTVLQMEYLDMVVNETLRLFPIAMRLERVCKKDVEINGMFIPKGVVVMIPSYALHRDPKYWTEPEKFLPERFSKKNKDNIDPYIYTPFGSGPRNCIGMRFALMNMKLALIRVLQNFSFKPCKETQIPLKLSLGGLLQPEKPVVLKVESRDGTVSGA
Chain of Cytochrome P450 2D6 (P10635 whole entry): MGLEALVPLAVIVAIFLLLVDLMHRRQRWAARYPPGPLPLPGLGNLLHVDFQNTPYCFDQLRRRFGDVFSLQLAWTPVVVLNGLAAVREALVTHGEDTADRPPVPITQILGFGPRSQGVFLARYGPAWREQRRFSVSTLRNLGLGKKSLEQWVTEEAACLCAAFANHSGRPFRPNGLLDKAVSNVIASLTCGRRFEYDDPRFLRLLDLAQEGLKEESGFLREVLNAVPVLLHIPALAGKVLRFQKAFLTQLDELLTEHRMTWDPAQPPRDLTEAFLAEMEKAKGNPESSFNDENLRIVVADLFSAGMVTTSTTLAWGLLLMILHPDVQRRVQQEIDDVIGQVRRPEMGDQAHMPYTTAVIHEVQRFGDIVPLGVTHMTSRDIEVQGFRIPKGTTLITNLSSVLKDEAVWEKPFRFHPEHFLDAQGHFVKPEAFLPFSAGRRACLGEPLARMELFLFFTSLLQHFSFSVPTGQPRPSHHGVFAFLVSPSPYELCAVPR

Compound	CC50 at 48 h (in vitro [1])	CC50 at 48 h (in vitro [2])	pIC50 (Cytochrome P450 2C9)	pIC50 (Cytochrome P450 2C19)	pIC50 (Cytochrome P450 3A4)	pIC50 (Cytochrome P450 1A2)	pIC50 (Cytochrome P450 2D6)	half-life at 2 h (in vitro [21])	CLint scaled at 2 h (in vitro [22])	remaining at 60 min (in vitro [23])	other results
CCC(CC)O[C@@H]1C=C(C(=O)O)C[C@H](NCc2ccc(-c3cccs3)c(Cl)c2)[C@H]1NC(C)=O	> 250 µM	> 250 µM	–	–	–	–	–	–	–	–	–
CCC(CC)O[C@@H]1C=C(C(=O)O)C[C@H](NCc2ccc(-c3cccs3)cc2OC)[C@H]1NC(C)=O	> 250 µM	> 250 µM	4.38	4.52	4.06	4.68	< 4.00	120 min	10.4 mL/min/kg	73.8%	half-life [3]: 12.8 min; Tmax [4]: 4.98 min; Cmax [5]: 6870 ng/mL; Vd [6]: 0.191 L/kg; clearance [7]: 17.7 mL/min/kg; half-life [8]: 20.9 min; Tmax [9]: 20 min; Cmax [10]: 511 ng/mL; bioavailability [11]: 1.5%; Activity [12]: Non-Toxic; Activity [13]: Non-Toxic; Activity [14]: Non-Toxic; Activity [15]: Non-Toxic; Activity [16]: Non-Toxic; Activity [17]: Non-Toxic; Activity [18]: Non-Toxic; Activity [19]: Non-Toxic; Activity [20]: Non-Toxic; Papp A→B at 2 h, 20 µM (in vitro [24]): 0.0191 ×10⁻⁶ cm/s
CCC(CC)O[C@@H]1C=C(C(=O)O)C[C@H](NCc2c(C)cc(-c3cccs3)cc2C)[C@H]1NC(C)=O	> 250 µM	> 250 µM	–	–	–	–	–	–	–	–	–
CCC(CC)O[C@@H]1C=C(C(=O)O)C[C@H](NCc2ccc(-c3ccsc3)cc2C)[C@H]1NC(C)=O	> 250 µM	> 250 µM	–	–	–	–	–	–	–	–	–
CCC(CC)O[C@@H]1C=C(C(=O)O)C[C@H](NCc2c(C)cc(-c3ccsc3)cc2C)[C@H]1NC(C)=O	> 250 µM	> 250 µM	–	–	–	–	–	–	–	–	–
CCC(CC)O[C@@H]1C=C(C(=O)O)C[C@H](NCc2ccc(-c3ccsc3)cc2O)[C@H]1NC(C)=O	> 250 µM	> 250 µM	–	–	–	–	–	44.5 min	17.2 mL/min/kg	59%	–
CCC(CC)O[C@@H]1C=C(C(=O)O)C[C@H](NCc2ccc(-c3ccsc3)cc2OC)[C@H]1NC(C)=O	> 250 µM	> 250 µM	4.33	4.32	< 4.00	4.54	< 4.00	> 145 min	< 8.6 mL/min/kg	79.3%	half-life [3]: 12.8 min; Tmax [4]: 4.98 min; Cmax [5]: 7200 ng/mL; Vd [6]: 0.179 L/kg; clearance [7]: 17.2 mL/min/kg; half-life [8]: 50.2 min; Tmax [9]: 30 min; Cmax [10]: 491 ng/mL; bioavailability [11]: 1.58%; Activity [12]: Non-Toxic; Activity [13]: Non-Toxic; Activity [14]: Non-Toxic; Activity [15]: Non-Toxic; Activity [16]: Non-Toxic; Activity [17]: Non-Toxic; Activity [18]: Non-Toxic; Activity [19]: Non-Toxic; Activity [20]: Non-Toxic; Papp A→B at 2 h, 20 µM (in vitro [24]): 0.0262 ×10⁻⁶ cm/s
CCC(CC)O[C@@H]1C=C(C(=O)O)C[C@H](NCc2ccc(-c3ccsc3)cc2Cl)[C@H]1NC(C)=O	> 250 µM	> 250 µM	4.50	4.44	4.14	4.84	< 4.00	> 145 min	< 8.6 mL/min/kg	78.1%	–
CCC(CC)O[C@@H]1C=C(C(=O)O)C[C@H](NCc2ccc(-c3cccs3)cc2C)[C@H]1NC(C)=O	> 250 µM	> 250 µM	4.36	4.41	< 4.00	4.71	< 4.00	123 min	10.2 mL/min/kg	71.7%	–
CCC(CC)O[C@@H]1C=C(C(=O)O)C[C@H](NCc2ccc(-c3cccs3)cc2Cl)[C@H]1NC(C)=O	> 250 µM	> 250 µM	4.06	4.41	< 4.00	4.90	< 4.00	> 145 min	< 8.6 mL/min/kg	76.1%	–
O=C(O)Cc1ccccc1Nc1c(Cl)cccc1Cl [DICLOFENAC]	–	–	–	–	–	–	–	5.5 min	225 mL/min/kg	–	–
CC(C)(C)NCC(O)COc1cccc2c1CC(O)C(O)C2 (stereo unspecified) [NADOLOL]	–	–	–	–	–	–	–	–	–	–	Papp A→B at 2 h, 20 µM (in vitro [24]): 0.0491 ×10⁻⁶ cm/s
CCC(CC)O[C@@H]1C=C(C(=O)O)C[C@H](N)[C@H]1NC(C)=O [OSELTAMIVIR CARBOXYLATE]	> 250 µM	> 250 µM	–	–	–	–	–	72.4 min	28 mL/min/kg	40.6%	–
C[C@]12CC[C@H]3[C@@H](CCC4=CC(=O)CC[C@@]43C)[C@@H]1CC[C@@H]2O [TESTOSTERONE]	–	–	–	–	–	–	–	–	89.7 mL/min/kg	5.1%	–
